Measurements taken from ChEMBL document CHEMBL3507680, “University of Dundee, Gates Library screen for HepG2 cell viability”.

Test: Human HepG2 cell viability assay in 384 well format
Format: toxicity, cell-based
Set-up: dose 125 nL, time 70.5 hour; concentration not given beside the values
Conditions: HepG2 cells, read-out: Inhibition

Row | SMILES | cytotoxicity at 70.5 h [%]
1 | CN(Cc1ncc[nH]1)CC(c1cccs1)N1CCOCC1 (centres undefined) | 17.4
2 | Cc1nc(C)c(C(=O)NCCNC(=O)Cc2ccccc2)s1 | -1.65
3 | Cc1nc(C)c(C(=O)NCCNC(=O)Cc2cccc(F)c2)s1 | -9.52
4 | CC(NC(=O)NCCCOC1CCCCC1)c1nncn1C (centres undefined) | -6.4
5 | Cc1csc(N2CCCN(C(=O)C(C(C)C)n3cncn3)CC2)n1 (centres undefined) | 2.24
6 | COCCN1CCN(CCCS(C)(=O)=O)CC1C (centres undefined) | 42.9
7 | NC(=O)c1csc(C(=O)N2CCCCC2Cn2cccn2)c1 (centres undefined) | -10.3
8 | CC(C)n1ncc2cc(NC(=O)N3CCC(N4CCCC4)C3)cnc21 (centres undefined) | 1.93
9 | Cc1ccc(C(=O)NS(=O)(=O)c2cccc3cnccc23)c(=O)[nH]1 | -6.04
10 | CC(C)(C#N)C(=O)N1CCCC(c2cc(C(F)(F)F)[nH]n2)C1 (centres undefined) | -0.389
11 | CCc1ccccc1-n1cc(O)c(C(=O)N2CCCCC2)n1 | -4.48
12 | O=C(c1nn(-c2ccccc2F)cc1O)N1CCCC1 | -2.52
13 | CCOCCN1CCN(Cc2cccc(C(=O)N(C)C)c2)CC1 | 40.4
14 | COCCN1CCN(CCS(=O)(=O)C(F)(F)F)CC1C (centres undefined) | -6.2
15 | CC(O)CN1CCN(Cc2cccc(C(=O)N(C)C)c2)CC1 (centres undefined) | -2.45
16 | COc1c(C2CCCN2CC(=O)Nc2nc(C)cs2)c(C)nn1C (centres undefined) | 3.79
17 | CCc1nc(C2CCCN(C(=O)c3cn(C)nc3C)C2)no1 (centres undefined) | 36.3
18 | CCc1ccc(CCC(=O)N2CCOCC2c2ncon2)cc1 (centres undefined) | -9.85
19 | Cc1nc(CN(C)C2CCN(CC(=O)NC3CCOCC3)C2)no1 (centres undefined) | 4.94
20 | CC(=O)N(Cc1noc(C2CC2)n1)C1CCN(Cc2cccnc2)C1 (centres undefined) | -9.51

Row | SMILES | cytotoxicity at 70.5 h [%]
21 | Cc1cnn(CC2CN(Cc3nnc(-c4occc4C)o3)CCO2)c1 (centres undefined) | -18.4
22 | Cc1ccccc1-n1ncc(C(=O)N2CCCC2c2cnn(C)c2)c1C (centres undefined) | -13.6
23 | Cc1nc(CN(C)C2CCN(CC3CCCCC3)C2)no1 (centres undefined) | -11.6
24 | N#Cc1ccc(CN2CCN(C(=O)c3cc(C4CC4)[nH]n3)CC2)cc1 | 0.0729
25 | O=C(C1CCCCN1Cc1nc(-c2ccco2)no1)N1CCCC1 (centres undefined) | 4.12
26 | O=C(NCCNc1ncccn1)C1CCN(C(=O)C2CC2)CC1 | -13
27 | COC(=O)c1cccc(OCCn2nc(-c3cccs3)oc2=O)c1 | -21.5
28 | O=C(C1CCCC1)N1CCN(Cc2nc(-c3ccco3)no2)CC1 | -9.97
29 | CC(C)c1ncncc1C(=O)N1CCN(Cc2cscn2)CC1 | 22.6
30 | CCN(CC)C(=O)c1nnn(-c2ccc(C)cc2)c1C1CC1 | -7.41
31 | NC(=O)C1CN(C(=O)Nc2ccccc2-c2cccs2)CCO1 (centres undefined) | -1.53
32 | Cc1cnn(CC2CN(Cc3nnc(C4CC4)o3)CCO2)c1 (centres undefined) | -5.68
33 | NC(=O)C1CN(C(=O)Nc2ccccc2SC(F)(F)F)CCO1 (centres undefined) | -10.6
34 | c1ccc2oc(CCCN3CCCC3Cn3cncn3)nc2c1 (centres undefined) | -15.6
35 | Cc1nn(-c2ccccc2)nc1C(=O)N1CCCC1c1cnn(C)c1 (centres undefined) | -18.4
36 | NC(=O)C1CN(C(=O)Nc2ccccc2N2CCCCCC2)CCO1 (centres undefined) | -17.5
37 | O=C(c1ccc(Cl)c(Cl)c1)N1CCCC(n2cncn2)C1 (centres undefined) | -14
38 | O=C(CN1CC(n2cccn2)C1)NCCc1c[nH]c2ccccc12 | -13.2
39 | CN1CCOC(CN(C(=O)Cc2ccccc2F)c2nccs2)C1 (centres undefined) | 20.9
40 | CN1CCOC(CN(C(=O)CC2CCCC2)c2nccs2)C1 (centres undefined) | 4.76

Row | SMILES | cytotoxicity at 70.5 h [%]
41 | COc1cc(C(=O)NS(=O)(=O)c2cccc(C#N)c2)ccc1C | -7.93
42 | Cc1cc(CC(=O)N(CC2CN(C)CCO2)c2nccs2)no1 (centres undefined) | -10.3
43 | Cc1nn(CC(C)C)c(N(C)C)c1CNCc1cccc2c1OCO2 | 10.6
44 | CC(C)c1noc(C(C)N2CCN(CCO)CC2)n1 (centres undefined) | -1.66
45 | CN(Cc1nnc(C2CC2)n1C)C1CCN(Cc2ccon2)C1 (centres undefined) | -12.4
46 | CC(C)(NCC(=O)NCCC#N)c1ccc2c(c1)OCCO2 | -10.6
47 | Cc1nc(C)n(CC2CN(Cc3cccc(C#N)c3)CCO2)n1 (centres undefined) | -24.6
48 | CN(Cc1nnc(C2CC2)n1C)C1CCN(Cc2ccc(F)cc2)C1 (centres undefined) | -6.24
49 | Cc1cnn(CC2CCCN2Cc2nnc(Cc3ccccc3)o2)c1 (centres undefined) | 8
50 | COc1c(CNCc2cccc(CS(C)(=O)=O)c2)c(C)nn1C | -17
51 | Cc1nn(CC(C)C)c(N(C)C)c1CNCc1cc2ccccc2[nH]1 | 5.6
52 | Cc1noc(CN(Cc2ccc3c(c2)OCO3)C2CCCC2)n1 | -13
53 | CC(C)c1nc(C2CCCN(C(=O)Cc3cccnc3)C2)no1 (centres undefined) | -16.6
54 | CC(C(=O)Nc1ccc(N2CCCC2)nc1)n1ccnc1 (centres undefined) | -11.6
55 | Cn1ccc(C(=O)N2CCN(c3cc(C#N)ccn3)CC2)cc1=O | -7.65
56 | COc1cc(CNCc2ccnc(N3CCOCC3)c2)cc(Cl)c1OC | -18.7
57 | N#Cc1ccc(S(=O)(=O)NC(=O)C2CC2)c(C(F)(F)F)c1 | -13.8
58 | CC(C(=O)Nc1cccc(N2CCCCC2)c1)n1cncn1 (centres undefined) | -6.3
59 | CCOC(=O)c1sc2ccsc2c1CN | -3.38
